Laboratory results reported in patent US9084766B2, “Compounds and compositions for targeting cancer stem cells” (Boston Biomedical, Inc., priority 2010, dated 2015).
“Also recorded” adds a separate entry of the source.

Experiments:
[1] = tested on: FaDu human head and neck cancer; assay: Antitumor activity in subcutaneous FaDu xenograft mice; format: in vivo
Procedure: In the studies shown in FIG. 8, immunosuppressed mice with established subcutaneous FaDu human head and neck cancer were given indicated amount of hand grounded Compound 1 with Crystal Form 1, or vehicle control orally (po). Compound 1 was formulated in […]™. All regimens were administered daily (qd). Tumor sizes were evaluated periodically during treatment.
In the study shown in FIG. 9, immunosuppressed mice with established subcutaneous FaDu human head and neck cancer were given 100 mg/kg of micronized Compound 1 produced with the synthetic process described in FIGS. 5A and 5B (first crop), or vehicle control orally (po). Compound 1 was formulated in […]™. All regimens were administered daily (qd). Tumor sizes were evaluated periodically during treatment. Form 2 has been successfully manufactured by a current good manufacturing practice (cGMP) process and received approval from the FDA and Health Canada to be used in clinical trials.
Form 3 can only be generated from Form 1 using a specially designed slurry process described herein. […] In the study shown in FIG. 10, immunosuppressed mice with established subcutaneous FaDu human head and neck cancer were given 200 mg/kg of Compound 1 with hand grounded Crystal Form 1 or Form 3, or vehicle control orally (po). Compound 1 was formulated in gelucire. All regimens were administered daily (qd). Tumor sizes were evaluated periodically during treatment. This polymorph has been successfully manufactured by a cGMP process and received approval from FDA and Health Canada to be used in clinical trials.
The anti-tumor activity of particles of Compound 1 with different particle size ranges is illustrated in FIG. 15, and the pharmacokinetic data for particles of Compound 1 with different particle size ranges is illustrated in FIGS. 16-18. In the study shown in FIG. 15, immunosuppressed mice with established subcutaneous FaDu human head and neck cancer were given indicated amount of Compound 1 with indicated particle size, or vehicle control orally (po). All regimens were administered daily (qd). Tumor size was evaluated periodically.
In an experiment, a formulation of Compound 1 particles sieved to 160 micron was tested in the model of immunosuppressed mice with established subcutaneous xenograft FaDu human head and neck cancer. The pharmaceutical composition was formulated as 80 mg/ml in 9% Gelucire, 20% Vitamin E TPGS (Table 3). […] All regimens were administered daily (qd).
In an experiment, Compound 1 crystals were milled to a median particle size of about 20 micron. […] All regimens were administered daily (qd).
FaDu human head and neck cancer cells were inoculated subcutaneously into female athymic nude mice (6×10^6 cells/mouse) and allowed to form palpable tumors. When the tumors reached approximately 100 mm^3, the animals were treated orally (po) with Compound 1 at 100 mg/kg or vehicle control daily. Compound 1 was formulated at 10 mg/ml in 20% gelucire. Tumors and bodyweights were measured throughout treatment (FIG. 15).
Daily examinations into the health status of each animal were also conducted. Body weights were checked every three days. Food and water was supplied daily according to the animal husbandry procedures of the facility. Treatment producing>20% lethality and or >20% net body weight loss were considered toxic. Results are expressed as mean tumor volume (mm^3)±SE. P Values<0.05 are considered to be statistically relevant.
Male or female athymic nude mice 4-5 weeks (Charles River Laboratories, Wilmington, Mass.), were acclimated to the animal housing facility for at least 1 week before study initiation. […]

advanced solid tumors = assay: Phase I clinical trial: tumor response (RECIST 1.1) and progression free survival; format: in vivo, human; conditions: clinical trials
From the text: As of Feb. 7, 2011, 42 cancer patients with various advanced solid tumors who have failed chemotherapies were enrolled in the study.
Of the 42 patients dosed, 24 were evaluable for tumor response as of Feb. 7, 2011; 16 (16/24 evaluable patients) achieved stable disease (8 to 75+ weeks).

[2] = Phase I clinical trial: plasma pharmacokinetics; format: in vivo, human; conditions: clinical trials (FIG. 11, FIG. 12)
Procedure: A favorable PK profile with oral bid dosing was also observed. The plasma concentration reached several folds over efficacious concentration (in vitro IC50).
In yet another suitable dosing regimen, Compound 1 is administered with food which delays the Tmax (Table 13).

CC(=O)c1cc2c(o1)C(=O)c1ccccc1C2=O [Crystal Form 1, 2-acetyl-4H,9H-naphtho[2,3-b]furan-4,9-dione]
anti-tumor activity ([1]; hand grounded Crystal Form 1 in GELUCIRE, po qd (FIG. 8)): limited anti-tumor activity; also recorded: low anti-tumor activity

CC(=O)c1cc2c(o1)C(=O)c1ccccc1C2=O [Crystal Form 3, 2-acetyl-4H,9H-naphtho[2,3-b]furan-4,9-dione]
antitumor activities ([1]; 200 mg/kg hand grounded, in gelucire, po qd (FIG. 10)): potent antitumor activities

CC(=O)c1cc2c(o1)C(=O)c1ccccc1C2=O [Crystal Form 2, 2-acetyl-4H,9H-naphtho[2,3-b]furan-4,9-dione]
anti-tumor activity ([1]; 100 mg/kg micronized (first crop) in GELUCIRE, po qd (FIG. 9)): potent anti-tumor activity
anti-tumor activity in cancer patients (advanced solid tumors): strong signs of anti-tumor activity
pharmacokinetics in cancer patients [2]: desirable pharmacokinetics
